Measured values: ChEMBL document CHEMBL5113546, “Novel SMARCA Degraders for Treating Cancer” (ACS Med Chem Lett, 2022)

Target: SWI/SNF-related matrix-associated actin-dependent regulator of chromatin subfamily A member 2 (Homo sapiens, UniProt P51531)
Assay: Induction of SMARCA2 degradation in human A549 cells measured after 24 hrs by MSD assay
Type: cell-based

SWI/SNF-related matrix-associated actin-dependent regulator of chromatin subfamily A member 2, sequence (P51531 whole entry): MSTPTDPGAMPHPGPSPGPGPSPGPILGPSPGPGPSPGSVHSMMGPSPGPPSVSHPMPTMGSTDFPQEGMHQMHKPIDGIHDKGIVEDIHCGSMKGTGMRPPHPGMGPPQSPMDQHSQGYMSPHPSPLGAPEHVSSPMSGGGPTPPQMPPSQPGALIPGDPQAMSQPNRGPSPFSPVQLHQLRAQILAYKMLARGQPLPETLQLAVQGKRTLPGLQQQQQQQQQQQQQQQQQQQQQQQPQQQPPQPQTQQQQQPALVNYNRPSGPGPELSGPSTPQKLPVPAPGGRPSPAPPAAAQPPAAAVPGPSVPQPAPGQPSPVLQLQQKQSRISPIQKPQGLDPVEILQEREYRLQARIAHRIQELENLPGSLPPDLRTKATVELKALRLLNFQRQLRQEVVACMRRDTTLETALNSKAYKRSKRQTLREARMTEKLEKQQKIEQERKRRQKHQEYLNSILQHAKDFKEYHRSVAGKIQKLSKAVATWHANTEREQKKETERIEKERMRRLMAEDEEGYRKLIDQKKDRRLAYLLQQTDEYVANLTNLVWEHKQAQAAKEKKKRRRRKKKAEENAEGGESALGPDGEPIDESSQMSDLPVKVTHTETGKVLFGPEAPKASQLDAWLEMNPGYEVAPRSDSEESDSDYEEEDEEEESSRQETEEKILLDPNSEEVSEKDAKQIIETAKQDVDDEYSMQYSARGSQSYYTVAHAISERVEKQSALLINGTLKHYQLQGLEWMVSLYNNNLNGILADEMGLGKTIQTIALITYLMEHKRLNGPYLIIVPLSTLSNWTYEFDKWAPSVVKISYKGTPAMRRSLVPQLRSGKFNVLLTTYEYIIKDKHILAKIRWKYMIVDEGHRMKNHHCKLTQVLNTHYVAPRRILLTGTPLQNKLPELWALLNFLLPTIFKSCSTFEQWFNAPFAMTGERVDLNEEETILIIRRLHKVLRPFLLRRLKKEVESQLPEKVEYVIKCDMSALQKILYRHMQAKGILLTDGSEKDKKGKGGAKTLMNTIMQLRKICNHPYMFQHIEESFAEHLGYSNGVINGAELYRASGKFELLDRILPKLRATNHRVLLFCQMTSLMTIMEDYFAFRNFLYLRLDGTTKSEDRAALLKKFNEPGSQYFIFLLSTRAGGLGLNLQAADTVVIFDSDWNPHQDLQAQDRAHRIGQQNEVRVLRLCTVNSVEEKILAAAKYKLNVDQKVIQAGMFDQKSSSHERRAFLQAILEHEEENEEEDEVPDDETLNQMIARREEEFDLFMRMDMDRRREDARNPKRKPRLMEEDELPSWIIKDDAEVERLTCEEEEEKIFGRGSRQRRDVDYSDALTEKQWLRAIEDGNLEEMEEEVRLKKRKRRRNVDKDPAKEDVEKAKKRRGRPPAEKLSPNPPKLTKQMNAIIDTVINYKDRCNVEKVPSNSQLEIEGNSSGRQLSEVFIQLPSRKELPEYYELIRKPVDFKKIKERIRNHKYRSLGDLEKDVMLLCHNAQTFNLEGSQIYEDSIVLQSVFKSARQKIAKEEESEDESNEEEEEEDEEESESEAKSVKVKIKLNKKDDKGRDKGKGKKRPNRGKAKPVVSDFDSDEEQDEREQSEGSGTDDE

Row | SMILES | DC50
1 | Cc1ncsc1-c1ccc(CNC(=O)[C@@H]2C[C@@H](O)CN2C(=O)C(c2cc(OCCN3CCC(c4cnc(N5C6CCC5CN(c5cc(-c7ccccc7O)nnc5N)C6)nc4)CC3)no2)C(C)C)cc1 (stereo partly specified) | < 0.1 µM
2 | Cc1ncsc1-c1ccc(CNC(=O)[C@@H]2C[C@@H](O)CN2C(=O)C(c2cc(OCCCCN3CCC(c4cnc(N5C6CCC5CN(c5cc(-c7ccccc7O)nnc5N)C6)nc4)CC3)no2)C(C)C)cc1 (stereo partly specified) | < 0.1 µM
3 | Cc1ncsc1-c1ccc(C2(NC(=O)[C@@H]3C[C@@H](O)CN3C(=O)[C@@H](NC(=O)[C@H]3CC4(C3)C[C@H](N3CCC(c5cnc(N6C7CCC6CN(c6cc(-c8ccccc8O)nnc6N)C7)nc5)CC3)C4)C(C)(C)C)CC2)cc1 (stereo partly specified) | < 0.1 µM
4 | Cc1ncsc1-c1ccc(CNC(=O)[C@@H]2C[C@@H](O)CN2C(=O)[C@@H](NC(=O)[C@H]2CC3(CC[C@H](N4CCC(c5cnc(N6C7CCC6CN(c6cc(-c8ccccc8O)nnc6N)C7)nc5)CC4)CC3)C2)C(C)(C)C)cc1 (stereo partly specified) | < 0.1 µM
5 | Cc1ncsc1-c1ccc([C@H](C)NC(=O)[C@@H]2C[C@@H](O)CN2C(=O)[C@@H](NC(=O)[C@H]2CC3(C2)C[C@H](N2CCC(c4cnc(N5C6CCC5CN(c5cc(-c7ccccc7O)nnc5N)C6)nc4)CC2)C3)C(C)(C)C)cc1 (stereo partly specified) | < 0.1 µM
6 | Cc1ncsc1-c1ccc(CNC(=O)[C@@H]2C[C@@H](O)CN2C(=O)[C@@H](NC(=O)[C@H]2CC3(C2)C[C@H](N2CCN(c4cnc(N5C6CCC5CN(c5cc(-c7ccccc7O)nnc5N)C6)nc4)CC2)C3)C(C)(C)C)cc1 (stereo partly specified) | < 0.1 µM
